Measured values published in patent US9249110B2, “Substituted quinoxalines as B-raf kinase inhibitors” (NEUPHARMA, INC., priority 2011, dated 2016).

Columns and labels:
A375 cells = test: Inhibition of cancer cell growth, MTT assay, A375 cells; type: cell-based; conditions: Homo sapiens, A-375, 72 h compound exposure
Experimental: (§1) Inhibition of cell growth by compounds was measured using MTT assay (Mosmann, T., Journal of Immunological Methods, 1983, 65, 55-63). Tumor cell lines were purchased from ATCC (American Type Culture Collection, Manassas, Va.). All cell lines were maintained in RPMI 1640 (Hyclone) supplemented with 10% fetal bovine serum (FBS, Hyclone), glutamine (2 mM, Hyclone), and antibiotics (penicillin 100 U/mL and streptomycin 50 μg/mL) at 37° C. in a humidified atmosphere of 5% CO2 in air. Taxol (as a positive control, Sigma) and compounds were dissolved in DMSO (Sigma), and the final concentration of DMSO in the medium was 1%. Tumor cells were plated in 96-well plates at densities of about 4000 cells/well of a 96-well plate and allowed to adhere/grow for 24 h. They were then treated with various concentrations of drug for 72 h. 3-(4,5-Dimethylthiazol-2-yl)-2,5-diphenyltetrazolium bromide (MTT, Sigma) was used to determine the number of viable cells at the time of compound addition and the number of cells remaining after 72 h compound exposure. The number of cells remaining after 72 h was compared to the number of viable cells at the time of compound addition by measuring the absorbance at 570 nm, allowing for the calculation of growth inhibition.
(§2) All concentrations of compounds were tested in triplicate and controls were averaged over 4 wells. IC50 was calculated by plotting the concentration of compound vs the percentage of inhibition in treated wells using GraphPad Prism 5. […] The scale utilized in Table 4 is as follows: +++ less than 1000 nM, ++ between 1000 and 5000 nM, and + greater than 5000 nM.

BRAF V600E = target: T1, BRAF V600E (Homo sapiens, UniProt P15056, V600E); test: Z′-LYTE kinase inhibition assay against BRAF V600E (Invitrogen); type: biochemical; conditions: 1 μM compound, Z′-LYTE method
T1 construct: purchased Invitrogen
Experimental: (§3) Inhibitory activities of compounds against BRAF or BRAF V600E were measured by Invitrogen using Z′-LYTE® Method as briefly described in the following.
(§4) 4× Test compounds are dissolved in 1% DMSO. […] ATP solutions are diluted to a 4×ATP working concentration in Kinase Buffer (50 mM HEPES pH 7.5, 0.01% BRIJ-35, 10 mM MgCl2, 1 mM EGTA).
(§5) Reaction starts by 30-second shaking of mixture consisting of 2.5 μL4× test compound, […] and 2.5 μL 4×ATP Solution on Bar-coded Corning, low volume NBS, black 384-well plate (Corning Cat. #3676). Then the mixture is incubated for 60-minute at room temperature for the kinase reaction, followed by addition of 5 μL of a 1:1024 dilution of development reagent A and 30-second plate shake. The mixture is then incubated for another 60-minute at room temperature for development reaction. Finally fluorescence is read by plate reader.

KDR (VEGFR2) = target: T2, KDR (VEGFR2) (Homo sapiens, UniProt P35968); test: Z′-LYTE kinase inhibition assay against KDR (Invitrogen); type: biochemical; conditions: 1 μM compound, Z′-LYTE method
T2 construct: purchased Invitrogen
Experimental: Inhibitory activities of compounds against KDR (VEGFR2) were also measured by Invitrogen using Z′-LYTE® Method as described above with the following modification. The 2×KDR (VEGFR2)/Tyr 01 mixture is prepared in 50 mM HEPES pH 7.5, 0.01% BRIJ-35, 10 mM MgCl2, 1 mM EGTA. The final 10 μL Kinase Reaction consists of 0.5-11.7 ng KDR (VEGFR2) and 2 μM Tyr 01 in 50 mM HEPES pH 7.5, 0.01% BRIJ-35, 10 mM MgCl2, 1 mM EGTA. After the 1 hour Kinase Reaction incubation, 5 μL of a 1:256 dilution of Development Reagent B is added. […] The scale utilized in Table 3 is as follows: ++ more than 70% inhibition and + less than 70% inhibition.

A549 cells = test: Inhibition of cancer cell growth, MTT assay, A549 cells; type: cell-based; conditions: Homo sapiens, 72 h compound exposure
Experimental: as §1, §2

BRAF = target: T3, BRAF (Homo sapiens, UniProt P15056); test: Z′-LYTE kinase inhibition assay against BRAF (Invitrogen); type: biochemical; conditions: 1 μM compound, Z′-LYTE method
T3 construct: purchased Invitrogen
Experimental: as §3, §4, §5

T3 sequence (P15056 whole entry): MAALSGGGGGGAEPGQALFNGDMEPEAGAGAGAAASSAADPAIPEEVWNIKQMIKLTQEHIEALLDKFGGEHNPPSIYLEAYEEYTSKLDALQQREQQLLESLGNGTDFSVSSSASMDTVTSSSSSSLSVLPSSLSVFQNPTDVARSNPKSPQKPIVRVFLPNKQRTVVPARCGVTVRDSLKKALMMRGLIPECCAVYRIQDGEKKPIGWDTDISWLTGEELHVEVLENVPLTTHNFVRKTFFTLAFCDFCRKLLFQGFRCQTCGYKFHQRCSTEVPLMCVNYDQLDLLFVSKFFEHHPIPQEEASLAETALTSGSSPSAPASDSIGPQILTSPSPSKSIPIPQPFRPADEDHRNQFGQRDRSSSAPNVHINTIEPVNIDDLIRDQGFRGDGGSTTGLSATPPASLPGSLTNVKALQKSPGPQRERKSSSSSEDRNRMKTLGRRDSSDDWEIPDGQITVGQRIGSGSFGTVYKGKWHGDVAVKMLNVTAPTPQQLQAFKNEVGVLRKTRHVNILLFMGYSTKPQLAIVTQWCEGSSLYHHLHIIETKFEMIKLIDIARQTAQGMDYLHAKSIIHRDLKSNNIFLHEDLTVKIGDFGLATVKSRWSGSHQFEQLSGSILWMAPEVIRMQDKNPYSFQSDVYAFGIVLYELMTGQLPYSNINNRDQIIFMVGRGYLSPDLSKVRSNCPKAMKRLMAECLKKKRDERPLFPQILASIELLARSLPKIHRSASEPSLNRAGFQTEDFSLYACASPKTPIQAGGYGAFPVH
T2 sequence (P35968 20-1356): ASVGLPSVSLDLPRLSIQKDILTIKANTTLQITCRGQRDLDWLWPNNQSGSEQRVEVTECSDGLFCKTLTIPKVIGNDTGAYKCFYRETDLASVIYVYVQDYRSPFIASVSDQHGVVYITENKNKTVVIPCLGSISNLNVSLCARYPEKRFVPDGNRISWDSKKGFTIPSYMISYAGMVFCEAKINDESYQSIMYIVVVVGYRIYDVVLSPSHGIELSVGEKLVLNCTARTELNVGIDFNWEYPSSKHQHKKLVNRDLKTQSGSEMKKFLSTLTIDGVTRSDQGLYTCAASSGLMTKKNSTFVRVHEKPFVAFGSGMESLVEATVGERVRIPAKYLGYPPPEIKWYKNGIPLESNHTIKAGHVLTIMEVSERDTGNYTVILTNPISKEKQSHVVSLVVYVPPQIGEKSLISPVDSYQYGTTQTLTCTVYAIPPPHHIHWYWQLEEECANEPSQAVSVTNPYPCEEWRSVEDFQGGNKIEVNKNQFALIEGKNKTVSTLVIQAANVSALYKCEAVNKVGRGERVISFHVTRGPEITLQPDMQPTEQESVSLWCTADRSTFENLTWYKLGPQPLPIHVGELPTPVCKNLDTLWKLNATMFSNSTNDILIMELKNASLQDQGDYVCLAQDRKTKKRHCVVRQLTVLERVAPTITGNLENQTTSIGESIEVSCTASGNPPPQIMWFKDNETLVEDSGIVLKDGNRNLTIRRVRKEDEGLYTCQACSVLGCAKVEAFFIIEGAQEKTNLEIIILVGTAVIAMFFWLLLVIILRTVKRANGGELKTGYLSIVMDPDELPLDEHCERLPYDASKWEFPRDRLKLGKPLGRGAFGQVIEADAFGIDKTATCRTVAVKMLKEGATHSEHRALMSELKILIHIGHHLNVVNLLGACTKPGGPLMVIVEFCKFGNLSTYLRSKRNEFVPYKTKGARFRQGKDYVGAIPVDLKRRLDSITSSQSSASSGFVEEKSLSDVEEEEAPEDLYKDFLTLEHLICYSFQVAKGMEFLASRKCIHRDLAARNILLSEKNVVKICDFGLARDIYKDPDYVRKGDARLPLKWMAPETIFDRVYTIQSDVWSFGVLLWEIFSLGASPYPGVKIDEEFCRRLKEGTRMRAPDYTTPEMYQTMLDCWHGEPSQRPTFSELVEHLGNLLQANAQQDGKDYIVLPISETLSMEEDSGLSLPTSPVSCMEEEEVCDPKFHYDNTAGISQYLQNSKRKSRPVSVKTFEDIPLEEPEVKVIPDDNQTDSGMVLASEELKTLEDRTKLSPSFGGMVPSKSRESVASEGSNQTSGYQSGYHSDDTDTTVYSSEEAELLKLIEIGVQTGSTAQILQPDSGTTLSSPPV
T1 sequence (P15056 whole entry V600E): as the sequence (P15056 whole entry) above, with V600E counted along it

Row | IC50 (A375 cells) [µM] | inhibition at 1 µM (BRAF V600E) [%] | inhibition at 1 µM (KDR (VEGFR2)) [%] | IC50 (A549 cells) [µM] | inhibition at 1 µM (BRAF) [%] | Compound
1 | 1 to 5 | > 89 | – | 1 to 5 | 70 to 89 | CCCS(=O)(=O)Nc1ccc(F)c(C(=O)c2ccc3ncc(OC)nc3c2)c1F [Compound C03, N-(2,4-difluoro-3-(3-methoxyquinoxaline-6-carbonyl)phenyl)propane-1-sulfonamide]
2 | 1 to 5 | – | – | – | – | CCCS(=O)(=O)Nc1ccc(F)c(C(=O)c2ccc3ncc(N4CCOCC4)nc3c2)c1F [Compound C05, N-(2,4-difluoro-3-(3-morpholinoquinoxaline-6-carbonyl)phenyl)propane-1-sulfonamide]
3 | < 1 | > 89 | – | < 1 | 70 to 89 | CCCS(=O)(=O)Nc1ccc(F)c(C(=O)c2ccc3ncc(C#N)nc3c2)c1F [Compound C04, N-(3-(3-cyanoquinoxaline-6-carbonyl)-2,4-difluorophenyl)propane-1-sulfonamide]
4 | < 1 | > 89 | – | < 1 | 70 to 89 | CCCS(=O)(=O)Nc1ccc(F)c(C(=O)c2ccc3nccnc3c2)c1F [Compound C01, N-(2,4-difluoro-3-(quinoxaline-6-carbonyl)phenyl)propane-1-sulfonamide]

Further lines, the molecule ahead of its results:

Row | Compound | IC50 (A375 cells) [µM] | inhibition at 1 µM (BRAF V600E) [%] | inhibition at 1 µM (KDR (VEGFR2)) [%] | IC50 (A549 cells) [µM] | inhibition at 1 µM (BRAF) [%]
5 | O=C(Nc1cccc(F)c1)Nc1ccc(F)c(C(=O)c2ccc3nccnc3c2)c1F [Compound C07, 1-(2,4-difluoro-3-(quinoxaline-6-carbonyl)phenyl)-3-(3-fluorophenyl)urea] | > 5 | 70 to 89 | < 70 | 1 to 5 | –
6 | O=C(Nc1ccc(F)c(C(=O)c2ccc3nccnc3c2)c1F)c1cccc(C(F)(F)F)c1 [Compound C10, N-(2,4-difluoro-3-(quinoxaline-6-carbonyl)phenyl)-3-(trifluoromethyl)benzamide] | > 5 | 70 to 89 | > 70 | > 5 | –
7 | O=C(Nc1ccc(Cl)c(C(F)(F)F)c1)Nc1ccc(F)c(C(=O)c2ccc3nccnc3c2)c1F [Compound C08, 1-(4-chloro-3-(trifluoromethyl)phenyl)-3-(2,4-difluoro-3-(quinoxaline-6-carbonyl)phenyl)urea] | 1 to 5 | < 70 | < 70 | > 5 | –
8 | O=C(Nc1cccc(C(F)(F)F)c1)Nc1ccc(F)c(C(=O)c2ccc3nccnc3c2)c1F [Compound C06, 1-(2,4-difluoro-3-(quinoxaline-6-carbonyl)phenyl)-3-(3-(trifluoromethyl)phenyl)urea] | > 5 | 70 to 89 | < 70 | > 5 | –
9 | CCCS(=O)(=O)Nc1ccc(F)c(C(=O)c2ccc3ncc(-c4ccc(Cl)cc4)nc3c2)c1F [Compound C02, N-(3-(3-(4-chlorophenyl)quinoxaline-6-carbonyl)-2,4-difluorophenyl)propane-1-sulfonamide] | < 1 | > 89 | – | < 1 | 70 to 89
10 | O=C(Nc1ccc(F)c(C(=O)c2ccc3nccnc3c2)c1F)c1cccc(F)c1 [Compound C09, N-(2,4-difluoro-3-(quinoxaline-6-carbonyl)phenyl)-3-fluorobenzamide] | > 5 | 70 to 89 | – | > 5 | –
